Results: patent US5281594A, “Substituted 1-(alkoxyphenyl)piperazines with ons and antihypertensive activity” (The Upjohn Company, priority 1992, dated 1994)
pKi: −log10 of the molar value. Read-outs that look alike come from different tables or passages of the source.

Legend:
[1] = system: dopaminergic neurons in the substantia nigra (SNPC); assay: Dopamine nerve impulse generation: depression of firing of substantia nigra dopamine neurons (agonist); assay type: in vivo, Sprague-Dawley rats; conditions: for Emax / ED50: Rattus norvegicus, Neuron, iv; for Emax: read-out: Agonist Max.: maximal depression of firing; for ED50: read-out: Agonist ED50: dose to depress firing by 50%; for maximal depression on DA cell firing (% of control): 1 mg/kg i.v.
Excerpt: (§1) 3. Dopamine Nerve Impulse Generation
Dopaminergic agonists, such as apomorphine, depress nerve impulses generated by dopaminergic neurons. Indeed, all full dopamine agonists can completely suppress impulse generation so that the dopamine cells stop firing completely. As the name implies, partial agonists depress impulse generation only partly.
(§2) The activity of two compounds of the invention are compared with other known drugs in their effect on nerve impulse generation. Sprague-Dawley rats weighing between 250-350 g are anesthetized with chloral hydrate (400 mg/kg i.p.). Supplemental doses (50-100 mg/kg) are administered as needed. The fermoral artery and vein are cannulated to measure blood pressure and to permit i.v. administration of drug. Body temperature is maintained at 37° C. using a deltaphase isothermal pad. The animal's head is held in a stereotaxic device and a small burr hole made in the cranium. Extracellular action potentials are recorded with a glass microelectrode (tip size<1μm) filled with pontamine sky blue dye in 2M sodium chloride.
(§3) Dopaminergic neurons are identified by their long duration action potential (>2.5 ms), shape and firing pattern ([…]) according to B. S. Bunney and G. K. Aghajanian "Antipsychotic Drugs and Central Dopaminergic Neurons: A Model for Predicting Therapeutic Efficacy and Incidence of Extrapyramidal Side Effects, In: Predictability in Psychopharmacology: Preclinical and Clinical Correlates, eds.", Raven Press, N.Y., pp. 225-245 (1975). […] Watson "The Rat Brain in Stereotaxic Coordinates", Academic Press, Sydney (1982).
(§4) At the termination of each recording session, the location of the cell in the substantia nigra is identified by passing 10 μA cathodic current through the recording electrode for 10-20 minutes. The brain is then removed, fixed in 10% formalin, sectioned and stained, and the pontamine sky blue deposit verified in each animal.
(§5) All drug solutions are made in distilled water. Each drug injection contained no more than 0.15 ml of a given concentration, followed by a 0.2-0.4 ml of physiological saline to clean the catheter of any residual drug. Drug effects are measured as changes in firing rates as indicated by an integrated output throughout the experiment.

[2] = system: dopamine receptor within the central nervous system; assay: Block of apomorphine-induced cage climbing; assay type: in vivo, CF-1 mice; conditions: i.p., 25 minutes before apomorphine HCl 2.5 mg/kg i.p.; i.a. = inactive at top dose of 50 mg/kg
Procedure: Administration to mice stimulates dopaminergic receptors which results in enhanced locomotor activity, including climbing up the sides of wire cages. […] As a specific measure of their antagonistic effect, both the prior art compounds and the compounds of the invention are tested in their ability to block agonist-induced locomotor activity. […] During this time, mice that climb the walls more than half-way to the top (6") are removed from the cage. […] Co., New York, N.Y., p.

D2 receptor [3] = molecular target: T1, D2 receptor (Rattus norvegicus, UniProt P61169); assay: biochemical; assay type: binding; conditions: for binding to dopamine receptors (in words): at concentrations as high as 1,000 nM (m-tolyl) and 10,000 nM (p-methoxyphenyl), respectively
Procedure: The compounds of the invention are tested in a series of assays known by those skilled in the art as predictive for activity as dopamine partial agonists. […] Drugs. […] Except as otherwise stated, all other chemicals are widely available from commercial sources.
1. Dopamine Receptor Binding
Since a dopamine partial agonist must bind to the dopamine receptor, binding studies are used to determine the affinity of a compound for the receptor. […] The dopamine receptor affinity of the prior art compounds is compared to two compounds of the present invention following the procedure described in R. H. Roth. Comm. […] Compounds are tested at least four concentrations in triplicate. Non-specific binding is determined using 1 uM thioridazine.

[4] = system: amphetamine-induced stereotyped behavior; assay: Antagonism of amphetamine-induced stereotyped behavior; assay type: in vivo, Sprague-Dawley rats; conditions: for minimal effective dose: Rattus norvegicus, ip, i.p. 30 minutes before d-amphetamine (10 mg/kg s.c.), read-out: Antagonism amphetamine stereotypy: threshold dose for effect
Excerpt: Amphetamine releases excessive dopamine and induces a state in animals that serves as a model of positive-symptom schizophrenia. Amphetamine stimulates excessive locomotor activity in the rat, including uncontrolled stereotyped movements, characterized by licking and chewing. This model is indicative of the human response as amphetamine abuse is characterized by schizophrenic-like behavior in humans. Thus compounds may be tested in their ability to antagonize amphetamine.

catalepsy [5] = conditions: rat, in vivo
[6] = system: dopaminergic neurons in the substantia nigra (SNPC); assay: Dopamine nerve impulse generation: reversal of amphetamine-induced depression of firing (antagonist); assay type: in vivo, Sprague-Dawley rats; conditions: for ED50: Rattus norvegicus, Neuron, iv, read-out: Antagonist ED50: dose to reverse amphetamine by 50%
Excerpt: as §1
Dopamine partial agonists act as dopamine antagonists when dopaminergic activity is excessive. Excessive dopaminergic activity can be induced by amphetamine, which causes dopamine to be released at nerve terminals in dopaminergic postsynaptic areas such as the caudate nucleus. This released dopamine activates negative feedback systems connecting postsynaptic dopaminergic areas to dopamine cells (e.g., the caudate nucleus feeds back onto substantia nigra neurons). Through this negative feedback system, amphetamine inhibits nerve impulses in dopamine neurons. Because dopamine antagonists block the access of dopamine to its receptors, these agents block the activation of the negative feedback pathways. Thus, dopamine antagonists and dopamine partial agonists block or reverse amphetamine's depression in dopamine nerve impulse activity. Because dopamine antagonists block not only the dopamine released by amphetamine but also the dopamine released for maintenance of a normal physiological state, dopamine antagonists not only completely reverse the effects of amphetamine but may actually cause an increase in dopamine neuron impulse activity (i.e. reverse amphetamine's inhibition by more than 100%). […] Indeed, partial agonists with higher intrinsic activities only partially reverse the effects of amphetamine.
as §2, §3, §4, §5

D2 receptor [7] = molecular target: T1, D2 receptor; conditions: rat striata; Kohler; cited from earlier work
D2 receptor [8] = conditions: PET scanning in humans; Farde; cited from earlier work
catalepsy [9] = assay: Catalepsy
[10] = 3H-raclopride, whole rat brain, non-specific binding with 1 uM thioridazine, i.a. = inactive at specified concentration, read-out: Ki (dose for 50% occupation of the receptors)

T1 sequence (P61169 whole entry): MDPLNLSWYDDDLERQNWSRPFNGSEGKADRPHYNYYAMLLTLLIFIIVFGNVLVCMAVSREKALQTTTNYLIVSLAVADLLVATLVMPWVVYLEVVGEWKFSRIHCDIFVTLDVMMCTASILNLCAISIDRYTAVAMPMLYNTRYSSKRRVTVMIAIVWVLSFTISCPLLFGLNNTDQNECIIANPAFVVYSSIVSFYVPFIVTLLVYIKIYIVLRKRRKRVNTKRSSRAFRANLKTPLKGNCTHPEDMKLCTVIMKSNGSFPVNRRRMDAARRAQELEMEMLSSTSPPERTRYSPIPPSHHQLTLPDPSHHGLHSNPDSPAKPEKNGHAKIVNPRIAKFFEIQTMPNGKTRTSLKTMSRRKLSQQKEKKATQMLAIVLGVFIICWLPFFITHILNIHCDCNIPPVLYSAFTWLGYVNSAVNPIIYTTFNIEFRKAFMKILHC

Q: What does the source list for “7-hydroxy-1,2,3,4,4a,5,6,10-octahydrobenzo(f)quinoline [HW-165]”?
A: Agonist Max.: maximal depression of firing ([1]; i.v., Table 3): 85%; Agonist ED50: dose to depress firing by 50% ([1]; i.v., i.a. = inactive): 0.18 mg/kg

Q: For `Cl.O=C1N(CCCN2CCN(c3ccccc3)CC2)CCN1c1ccccc1` [1-phenyl-3-[3-(4-phenyl-1-piperazinyl)propyl]-2-imidazolidinone hydrochloride], which “ED50: dose for elimination of climbing behavior in 2 of 4 animals” value (“ED50: dose for elimination” for short) [2] is on record?
A: i.a.

Q: What about the pKi (D2 receptor [3]; read-out: Ki (dose for 50% occupation of the receptors)) of the same molecule?
A: 6.49

Q: Which minimal effective dose [4] does the source give for `O=C(CCCN1CCC(O)(c2ccc(Cl)cc2)CC1)c1ccc(F)cc1` [Haloperidol] here?
A: 1 mg/kg

Q: What about the “Catalepsy: threshold dose for effect” value (catalepsy [5]) of the same molecule?
A: 1.0 mg/kg

Q: What about the Emax [1] of the same molecule?
A: 0%

Q: And the “Agonist ED50: dose to depress firing by 50%” value ([1]; i.v., i.a. = inactive)?
A: i.a.

Q: What about the ED50 ([6]; i.a. = inactive) of the same molecule?
A: 0.008 mg/kg

Q: What about the “Antagonist Max.: maximal reversal of amphetamine” value (“Antagonist Max.: maximal reversal” for short) ([6]; i.v.) of the same molecule?
A: 163%

Q: With `CCCN(CCC)C1Cc2cccc3cc(O)cc(c23)C1` (single isomer, unassigned; (-)) [(-)-z-(dipropylamino)-2,3-dihydro-1-H-phenalen-5-ol] as the molecule, how does the pKi (D2 receptor [3]) read?
A: 9.33

Q: With `CN1C[C@@H](NC(=O)C(C)(C)C)C[C@@H]2c3cccc4[nH]c(Cl)c(c34)C[C@H]21` [SDZ 208-912, N-[(8-α)-2-chloro-6-methyl-ergoline-8-yl]-2,2-dimethylpropanamide] as the molecule, how does the pKi (D2 receptor [3]) read?
A: 7.80

Q: What about the ED50 [1] of the same molecule?
A: 0.021 mg/kg

Q: And the Emax [1]?
A: 16%

Q: What about the ED50 [6] of the same molecule?
A: 0.115 mg/kg

Q: What about the “Antagonist Max.: maximal reversal” value ([6]; i.v.) of the same molecule?
A: 93%

Q: For `COc1ccc(N2CCN(CCCN3CCN(c4cccc(Cl)c4)C3=O)CC2)cc1` [1-(m-chlorophenyl)-3-[3-[4-(p-methoxy-phenyl)-1-piperazinyl]propyl]-2-imidazolidinone], which “ED50: dose for elimination” value [2] is on record?
A: i.a.

Q: And the pKi (D2 receptor [3]; [10])?
A: < 5.00

Q: And the “binding to dopamine receptors (in words)” value (D2 receptor [3])?
A: do not bind at all

Q: Which Emax ([1]; Table 3) does the source give for `CN1CCc2cccc3c2[C@H]1Cc1ccc(O)c(O)c1-3` [Apomorphine] here?
A: 100%

Q: And the ED50 ([1]; i.a. = inactive)?
A: 0.01 mg/kg

Q: What about the “Antagonist Max.: maximal reversal” value ([6]; i.v.) of the same molecule?
A: 0%

Q: What about the “Antagonist ED50: dose to reverse amphetamine by 50%” value ([6]; i.v., i.a. = inactive) of the same molecule?
A: i.a.

Q: Which B max (D2 receptor [7]) does the source give for `CCN1CCC[C@H]1CNC(=O)c1c(O)c(Cl)cc(Cl)c1OC` [raclopride] here?
A: 23.5 pmoles/g tissue

Q: What about the Bmax (D2 receptor [3]; 3H-raclopride, whole rat brain) of the same molecule?
A: 1.6 pmoles/g tissue

Q: And the “binding to the D2 receptor (in words)” value (D2 receptor [8])?
A: binds to the D2 receptor

Q: Which results are given for `Cc1[nH]c2cccc3c2c1C[C@@H]1[C@@H]3C[C@H](NC(=O)C(C)(C)C)CN1C` [SDZ 208-911, N-[(8-α)-2,6-dimethyl-ergoline-8-yl]-2,2-dimethylpropanamide]?
A: ED50 [1]: 0.038 mg/kg; Emax [1]: 38%; ED50 [6]: 0.132 mg/kg; Antagonist Max.: maximal reversal of amphetamine ([6]; i.v.): 92%

Q: What does the source list for `CCN(CC)C(=O)N[C@H]1C[C@@H]2c3cccc4[nH]cc(c34)C[C@H]2N(C)C1` [TDHL, 1-1-diethyl-3-(6-methyl-8α-ergoline)-urea dihydrogenphosphate]?
A: ED50: dose for elimination of climbing behavior in 2 of 4 animals [2]: 35 mg/kg; pKi (D2 receptor [3]; [10]): 9.02; ED50 [1]: 0.021 mg/kg; Emax [1]: 53%; ED50 [6]: 0.136 mg/kg; Antagonist Max.: maximal reversal of amphetamine ([6]; i.v.): 60%

Q: With `CCCN1CCCC(c2cccc(O)c2)C1` (single isomer, unassigned; (-)) [(-)-3-PPP, (-)-3-(3-hydroxyphenyl)-N-n-propylpiperidine] as the molecule, how does the Emax ([1]; Table 3) read?
A: 70%

Q: And the ED50 ([1]; i.a. = inactive)?
A: 0.086 mg/kg

Q: With `COc1ccccc1N1CCN(CCCCN2CCN(c3ccccc3)C2=O)CC1` [Example 1, 1-[4-[4-(2-methoxyphenyl)-1-piperazinyl]butyl]-3-phenyl-2-imidazolidinone] as the molecule, how does the “ED50: dose for elimination” value [2] read?
A: 12 mg/kg

Q: What about the “Catalepsy: threshold dose for effect” value (catalepsy [9]; defined as 200% increase in time a rat will spend leaning on a box without aid) of the same molecule?
A: 10 mg/kg

Q: And the “catalepsy relative to dose blocking amphetamine-induced stereotypy (in words)” value (catalepsy [9]; rat, in vivo)?
A: produces catalepsy only at doses much higher that required to block amphetamine-induced stereotypy

Q: And the pKi (D2 receptor [3]; [10])?
A: 8.59

Q: What about the minimal effective dose [4] of the same molecule?
A: 0.3 mg/kg

Q: And the “antagonism of amphetamine stereotypy, potency relative to haloperidol (in words)” value ([4]; rat, in vivo)?
A: antagonizes amphetamine stereotypy with a potency greater than that of halperidol

Q: What about the “maximal depression on DA cell firing (% of control)” value [1] of the same molecule?
A: 32%

Q: And the Emax ([1]; Table 3)?
A: 36%

Q: And the ED50 ([1]; i.a. = inactive)?
A: 0.016 mg/kg

Q: And the “depression of SNPC cells (in words)” value ([1]; i.v.)?
A: behaved as dopamine partial agonists

Q: And the ED50 ([6]; i.a. = inactive)?
A: 0.04 mg/kg

Q: And the “Antagonist Max.: maximal reversal” value ([6]; i.v.)?
A: 70%

Q: What about the “antagonism of amphetamine-induced excessive dopaminergic activity (in words)” value ([6]; i.v.) of the same molecule?
A: only partially antagonized amphetamine

Q: With `Cc1cccc(N2CCN(CCCN3CCN(c4cccc(Cl)c4)C3=O)CC2)c1` [1-(m-chlorophenyl)-3-[3-[4-(m-tolyl)-1-piperazinyl]propyl]-2-imidazolidinone] as the molecule, how does the “ED50: dose for elimination” value [2] read?
A: i.a.

Q: And the pKi (D2 receptor [3]; [10])?
A: < 6.00

Q: What about the “binding to dopamine receptors (in words)” value (D2 receptor [3]) of the same molecule?
A: do not bind at all

Q: For `COc1ccccc1N1CCN(CCCCN2CCN(c3cccc(Cl)c3)C2=O)CC1` [Example 2, 1-(3-chlorophenyl)-3-[4-[4-(2-methoxyphenyl)-1-piperazinyl]butyl]-2-imidazolidinone], which “ED50: dose for elimination” value [2] is on record?
A: 42 mg/kg

Q: And the pKi (D2 receptor [3]; [10])?
A: 8.43

Q: And the “maximal depression on DA cell firing (% of control)” value [1]?
A: 54%

Q: And the “further depression of SNPC cells on increasing the dose (in words)” value ([1]; 3 mg/kg vs 1 mg/kg i.v.)?
A: does not further increase the depression in SNPC cells

Q: What about the Emax ([1]; Table 3) of the same molecule?
A: 54%

Q: What about the ED50 ([1]; i.a. = inactive) of the same molecule?
A: 0.108 mg/kg

Q: What about the “depression of SNPC cells (in words)” value ([1]; i.v.) of the same molecule?
A: behaved as dopamine partial agonists

Q: What about the ED50 ([6]; i.a. = inactive) of the same molecule?
A: 0.343 mg/kg

Q: What about the “Antagonist Max.: maximal reversal” value ([6]; i.v.) of the same molecule?
A: 73%
